Assay results taken from patent US20230022157A1 (Achillion Pharmaceuticals, Inc., priority 2018, published 2023).
Where two headings read alike, the source gives them in different places.

Target: T1, Human Factor D (Homo sapiens, UniProt P00746)
T1 construct: purified from human serum; purchased Complement Technology, Inc; host or cells: human serum (natural protein, not recombinant)
Test: Human Factor D Assay
Assay type: biochemical
Conditions: Human Factor D 80 nM, substrate Z-L-Lys-SBzl, read-out: IC50 (Stars)
How it was run: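 Serum-purified human factor D (80 nM final) preincubated 5 min at room temperature with test compound in 50 mM Tris, 1M NaCl, pH 7.5. Z-L-Lys-SBzl substrate and DTNB then added, each at 100 μM final. IC50 from nonlinear regression of reaction rate against compound concentration.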

T1 sequence (P00746 26-253): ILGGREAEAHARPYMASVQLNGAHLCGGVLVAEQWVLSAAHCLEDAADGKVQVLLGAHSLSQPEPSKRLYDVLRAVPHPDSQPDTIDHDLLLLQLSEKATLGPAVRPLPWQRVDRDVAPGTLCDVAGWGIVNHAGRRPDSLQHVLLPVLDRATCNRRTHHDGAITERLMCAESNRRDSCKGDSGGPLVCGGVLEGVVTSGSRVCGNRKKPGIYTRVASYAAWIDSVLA

| Structure (SMILES) | IC50 (assay of Example 3) | IC50 (Table 2) |
| --- | --- | --- |
| CC(=O)c1nn(CC(=O)N2C[C@H](F)C[C@H]2C(=O)Nc2cccc(Br)n2)c2ccc(-c3ccc(C)cc3)cc12 [Compound 29, (2S,4R)-1-(2-(3-Acetyl-5-(p-tolyl)-1H-indazol-1-yl)acetyl)-N-(6-bromopyridin-2-yl)-4-fluoropyrrolidine-2-carboxamide] | < 1000 nM | – |
| COC(=O)C1(c2cncc(-c3ccc4c(c3)c(C(C)=O)nn4CC(=O)N3[C@H](C(=O)Nc4nc(Br)ccc4C)C[C@@]4(C)C[C@@H]34)c2)CC1 [Compound 97, Methyl 1-(5-(3-acetyl-1-(2-((1R,3S,5R)-3-((6-bromo-3-methylpyridin-2-yl)carbamoyl)-5-methyl-2-azabicyclo[3.1.0]hexan-2-yl)-2-oxoethyl)-1H-indazol-5-yl)pyridin-3-yl)cyclopropane-1-carboxylate] | – | < 1000 nM |
| CC(=O)c1nn(CC(=O)N2[C@H](C(=O)NCCc3cccnc3)C[C@@]3(C)C[C@@H]23)c2c(C)cc(-c3cnc(C)nc3)cc12 [Compound 7, (1R,3S,5R)-2-(2-(3-Acetyl-7-methyl-5-(2-methylpyrimidin-5-yl)-1H-indazol-1-yl)acetyl)-5-methyl-N-(2-(pyridin-3-yl)ethyl)-2-azabicyclo[3.1.0]hexane-3-carboxamide] | < 1000 nM | – |
| COc1cc(Br)nc(NC(=O)[C@@H]2C[C@@]3(C)C[C@H]3N2C(=O)Cn2nc(C(C)=O)c3cc(-c4cnc(CO)nc4)ccc32)c1 [Compound 67, (1R,3S,5R)-2-(2-(3-acetyl-5-(2-(hydroxymethyl)pyrimidin-5-yl)-1H-indazol-1-yl)acetyl)-N-(6-bromo-4-methoxypyridin-2-yl)-5-methyl-2-azabicyclo[3.1.0]hexane-3-carboxamide] | – | < 1000 nM |
| CC(=O)c1nn(CC(=O)N2[C@H](C(=O)NCCc3cc(Cl)ccc3Cl)C[C@@]3(C)C[C@@H]23)c2c(C)cc(-c3cnc(C)nc3)cc12 [Compound 4, (1R,3S,5R)-2-(2-(3-Acetyl-7-methyl-5-(2-methylpyrimidin-5-yl)-1H-indazol-1-yl)acetyl)-N-(2,5-dichlorophenethyl)-5-methyl-2-azabicyclo[3.1.0]hexane-3-carboxamide] | < 1000 nM | – |
| CC(=O)c1ncc(-c2cc(C)c3c(c2)c(C(C)=O)nn3CC(=O)N2[C@H](C(=O)Nc3nc(Br)ccc3C)C[C@@]3(C)C[C@@H]23)cn1 [Compound 58] | – | < 1000 nM |
| CC(=O)c1nn(CC(=O)N2[C@H](C(=O)NCCC3CCC3)C[C@@]3(C)C[C@@H]23)c2c(C)cc(-c3cnc(C)nc3)cc12 [Compound 104, (1R,3S,5R)-2-{2-[3-acetyl-7-methyl-5-(2-methylpyrimidin-5-yl)indazol-1-yl]acetyl}-N-(2-cyclobutylethyl)-5-methyl-2-azabicyclo[3.1.0]hexane-3-carboxamide] | – | < 1000 nM |
| CC(=O)c1nn(CC(=O)N2[C@H](C(=O)Nc3cccc(Br)n3)C[C@@]3(C)C[C@@H]23)c2c3c(c(-c4cnc(C)nc4)cc12)CCCO3 [Compound 19, (1R,3S,5R)-2-(2-(3-acetyl-5-(2-methylpyrimidin-5-yl)-7,8-dihydropyran[3,2-g]indazol-1(6H)-yl)acetyl)-N-(6-bromopyridin-2-yl)-5-methyl-2-azabicyclo[3.1.0] hexane-3-carboxamide] | < 1000 nM | – |
| CC(=O)c1nn(CC(=O)N2[C@H](C(=O)NCC3(C)CCCCC3)C[C@@]3(C)C[C@@H]23)c2c(C)cc(-c3cnc(C)nc3)cc12 [Compound 90, (1R,3S,5R)-2-{2-[3-acetyl-7-methyl-5-(2-methylpyrimidin-5-yl)indazol-1-yl]acetyl}-5-methyl-N-[(1-methylcyclohexyl)methyl]-2-azabicyclo[3.1.0]hexane-3-carboxamide] | – | < 1000 nM |
| CC(=O)c1nn(CC(=O)N2[C@H]3CC[C@H](C3)[C@H]2C(=O)Nc2nc(Br)c(F)cc2C)c2c(C)cc(-c3cnc(C)nc3)cc12 [Compound 101, (1S,3S,4R)-2-(2-(3-Acetyl-7-methyl-5-(2-methylpyrimidin-5-yl)-1H-indazol-1-yl)acetyl)-N-(6-bromo-5-fluoro-3-methylpyridin-2-yl)-2-azabicyclo[2.2.1]heptane-3-carboxamide] | – | < 1000 nM |
| CC(=O)c1nn(CC(=O)N2[C@H](C(=O)N[C@H](C)C3CCCCC3)C[C@@]3(C)C[C@@H]23)c2c(C)cc(-c3cnc(C)nc3)cc12 [Compound 70, (1R,3S,5R)-2-(2-(3-acetyl-7-methyl-5-(2-methylpyrimidin-5-yl)-1H-indazol-1-yl)acetyl)-N—((R)-1-cyclohexylethyl)-5-methyl-2-azabicyclo[3.1.0]hexane-3-carboxamide] | – | < 1000 nM |

Other lines, results leading:

| IC50 (assay of Example 3) | IC50 (Table 2) | Structure (SMILES) |
| --- | --- | --- |
| – | < 1000 nM | CC(=O)c1nn(CC(=O)N2[C@H](C(=O)NC(C)Cc3cccs3)C[C@@]3(C)C[C@@H]23)c2c(C)cc(-c3cnc(C)nc3)cc12 (stereo partly drawn) [Compound 182, (1R,3S,5R)-2-{2-[3-acetyl-7-methyl-5-(2-methylpyrimidin-5-yl)indazol-1-yl]acetyl}-5-methyl-N-[1-(thiophen-2-yl)propan-2-yl]-2-azabicyclo[3.1.0]hexane-3-carboxamide] |
| – | < 1000 nM | CC(=O)c1cn(CC(=O)N2[C@H](C(=O)Nc3nc(Br)ccc3C)C[C@@]3(C)C[C@@H]23)c2c(C)cc(-c3cnc4cc(C5CC5)nn4c3)cc12 [Compound 195, (1R,3S,5R)-2-(2-(3-acetyl-5-(2-cyclopropylpyrazolo[1,5-a]pyrimidin-6-yl)-7-methyl-1H-indol-1-yl)acetyl)-N-(6-bromo-3-methylpyridin-2-yl)-5-methyl-2-azabicyclo[3.1.0]hexane-3-carboxamide] |
| – | < 1000 nM | COc1ncc(-c2cc3c(C(C)=O)cn(CC(=O)N4[C@H](C(=O)Nc5nc(C(F)(F)F)ccc5C)C[C@@]5(C)C[C@@H]45)c3c(C)n2)cn1 [Compound 201, (1R,3S,5R)-2-(2-(3-acetyl-5-(2-methoxypyrimidin-5-yl)-7-methyl-1H-pyrrolo[2,3-c]pyridin-1-yl)acetyl)-5-methyl-N-(3-methyl-6-(trifluoromethyl)pyridin-2-yl)-2-azabicyclo[3.1.0]hexane-3-carboxamide] |
| – | < 1000 nM | CC(=O)c1cn(CC(=O)N2[C@H](C(=O)Nc3nc(Br)ccc3C)C[C@@]3(C)C[C@@H]23)c2ccc(-c3cnc4cc(C)nn4c3)cc12 [Compound 202, (1R,3S,5R)-2-(2-(3-acetyl-5-(2-methylpyrazolo[1,5-a]pyrimidin-6-yl)-1H-indol-1-yl)acetyl)-N-(6-bromo-3-methylpyridin-2-yl)-5-methyl-2-azabicyclo[3.1.0]hexane-3-carboxamide] |
| – | > 10000 nM | CC(=O)c1nn(CCN2C[C@H](F)C[C@H]2C(=O)Nc2cccc(Br)n2)c2ccc(-c3cnc(C)nc3)cc12 [Compound 139, (2S,4R)-1-(2-(3-acetyl-5-(2-methylpyrimidin-5-yl)-1H-indazol-1-yl)ethyl)-N-(6-bromopyridin-2-yl)-4-fluoropyrrolidine-2-carboxamide] |
| – | > 10000 nM | CC(=O)c1nn(CC(=O)N2[C@H](C(=O)NC3CCC4(CC3)OCCO4)C[C@@]3(C)C[C@@H]23)c2c(C)cc(-c3cnc(C)nc3)cc12 [Compound 138, (1R,3S,5R)-2-{2-[3-acetyl-7-methyl-5-(2-methylpyrimidin-5-yl)indazol-1-yl]acetyl}-N-{1,4-dioxaspiro[4.5]decan-8-yl}-5-methyl-2-azabicyclo[3.1.0]hexane-3-carboxamide] |
| – | < 1000 nM | CC(=O)c1cn(CC(=O)N2[C@H](C(=O)Nc3nc(Br)c(F)cc3C)C[C@@]3(C)C[C@@H]23)c2ccc(-c3cnc4cc(C)nn4c3)cc12 [Compound 211, (1R,3S,5R)-2-(2-(3-acetyl-5-(2-methylpyrazolo[1,5-a]pyrimidin-6-yl)-1H-indol-1-yl)acetyl)-N-(6-bromo-5-fluoro-3-methylpyridin-2-yl)-5-methyl-2-azabicyclo[3.1.0]hexane-3-carboxamide] |
| – | < 1000 nM | CC(=O)c1cn(CC(=O)N2[C@H](C(=O)Nc3nc(Br)ccc3C)C[C@@]3(C)C[C@@H]23)c2c(C)cc(-c3cnc(C(C)F)nc3)cc12 (stereo partly drawn) [Compound 216, (1R,3S,5R)-2-(2-(3-acetyl-5-(2-(1-fluoroethyl)pyrimidin-5-yl)-7-methyl-1H-indol-1-yl)acetyl)-N-(6-bromo-3-methylpyridin-2-yl)-5-methyl-2-azabicyclo[3.1.0]hexane-3-carboxamide] |
| – | < 1000 nM | CC(=O)c1cn(CC(=O)N2[C@H](C(=O)Nc3nc(Br)c(F)cc3C)C[C@@]3(C)C[C@@H]23)c2c(C)cc(-c3cnc4cc(C)nn4c3)cc12 [Compound 209, (1R,3S,5R)-2-(2-(3-acetyl-7-methyl-5-(2-methylpyrazolo[1,5-a]pyrimidin-6-yl)-1H-indol-1-yl)acetyl)-N-(6-bromo-5-fluoro-3-methylpyridin-2-yl)-5-methyl-2-azabicyclo[3.1.0]hexane-3-carboxamide] |
| – | < 1000 nM | CC(=O)c1nn(CC(=O)N2[C@H](C(=O)Nc3nc(Br)ccc3C)C[C@@]3(C)C[C@@H]23)c2c(C)cc(-c3cnc(CF)nc3)cc12 [Compound 208, (1R,3S,5R)-2-(2-(3-acetyl-5-(2-(fluoromethyl)pyrimidin-5-yl)-7-methyl-1H-indazol-1-yl)acetyl)-N-(6-bromo-3-methylpyridin-2-yl)-5-methyl-2-azabicyclo[3.1.0]hexane-3-carboxamide] |
| – | < 1000 nM | CC(=O)c1cn(CC(=O)N2[C@H](C(=O)Nc3nc(Br)ccc3C)C[C@@]3(C)C[C@@H]23)c2c(C)cc(-c3cnc(CF)nc3)cc12 [Compound 221, (1R,3S,5R)-2-(2-(3-acetyl-5-(2-(fluoromethyl)pyrimidin-5-yl)-7-methyl-1H-indol-1-yl)acetyl)-N-(6-bromo-3-methylpyridin-2-yl)-5-methyl-2-azabicyclo[3.1.0]hexane-3-carboxamide] |
| – | < 1000 nM | Cc1ncc(-c2cc(C)c3c(c2)c(C(C)O)cn3CC(=O)N2[C@H](C(=O)Nc3nc(Br)ccc3C)C[C@@]3(C)C[C@@H]23)cn1 (stereo partly drawn) [Compound 191, (1R,3S,5R)—N-(6-bromo-3-methylpyridin-2-yl)-2-(2-(3-(1-hydroxyethyl)-7-methyl-5-(2-methylpyrimidin-5-yl)-1H-indol-1-yl)acetyl)-5-methyl-2-azabicyclo[3.1.0]hexane-3-carboxamide] |
